Measurements reported in patent publication US20050209251A1, “Substituted pyrazolo-pyrimidine-4-ones” (priority 2002, published 2005).

Key:
Meloidogyne incognita = test: Meloidogyne test (nematicidal action); format: in vivo; settings: Meloidogyne incognita egg/larvae suspension, lettuce in sand
Method: Meloidogyne Test (Nematicidal Action)
To produce a suitable preparation of active compound, 1 part by weight of active compound is mixed with the stated amounts of solvent and emulsifier, and the concentrate is diluted with water to the desired concentration.
Vessels are filled with sand, solution of active compound, Meloidogyne incognita egg/larvae suspension and lettuce seeds. The lettuce seeds germinate and the plants develop. On the roots, galls are formed.
After the desired period of time, the nematicidal action is determined in % by the formation of galls. 100% means that no galls have been found; 0% means that the number of galls on treated plants corresponds to that of the untreated control.

weeds [1] = test: Post-emergence test (herbicidal action); format: in vivo; settings: test plants of 5-15 cm sprayed, rated after three weeks
Method: Post-Emergence Test (Herbicidal Action)
(§1) To produce a suitable preparation of active compound, 1 part by weight of active compound is mixed with the stated amount of solvent, the stated amount of emulsifier is added and the concentrate is diluted with water to the desired concentration.
Test plants of a height of 5-15 cm are sprayed with the preparation of active compound such that the particular amounts of active compound desired are applied per unit area. The concentration of the spray liquor is chosen such that the particular amounts of active compound desired are applied in 1000 l of water/ha.
(§2) After three weeks, the degree of damage to the plants is rated in % damage in comparison to the development of the untreated control.

weeds [2] = test: Pre-emergence test (herbicidal action); format: in vivo; settings: soil sprayed 24 hours after sowing, rated after three weeks
Method: Pre-Emergence Test (Herbicidal Action)
as §1
Seeds of the test plants are sown in normal soil. After 24 hours, the soil is sprayed with the preparation of active compound such that the particular amount of active compound desired is applied per unit area. The concentration of active compound in the spray liquor is chosen such that the particular amount of active compound desired is applied in 1000 litres of water per hectare.
as §2

[3] = logP determination by reversed-phase HPLC (EEC Directive 79/831 Annex V.A8), acidic range; format: physicochemical; settings: for chromatographic logP: pH 2, HPLC, C18 reversed-phase column, read-out: logP (pH 2)
Method: The logP values given in the table were determined in accordance with EEC Directive 79/831 Annex V.A8 by HPLC (High Performance Liquid Chromatography) using a reversed-phase column (C 18). Temperature: 43° C.
(a) Mobile phases for the determination in the acidic range: 0.1% phosphoric acid, acetonitrile; linear gradient from 10% acetonitrile to 90% acetonitrile—the corresponding measurement results in Table 1 are marked a).
Calibration was carried out using unbranched alkan-2-ones (having 3 to 16 carbon atoms) with known logP values (determination of the logP values by the retention times using linear interpolation between two successive alkanones).

Row | SMILES | nematicidal action (formation of galls) (Meloidogyne incognita) | herbicidal action against weeds (degree of damage) (weeds [1]) | herbicidal action against weeds (degree of damage) (weeds [2]) | logP a) (Table 1, Physical data) [3] | melting point | chromatographic logP [3]
1 | Cn1c(C2CC2)nc2c(cnn2-c2ncc(Cl)cc2Cl)c1=O [Example 80] | good activity | strong action against weeds | strong action against weeds | (I) logP = 2.30^a) |  | 
2 | NC(=O)c1cnn(-c2ncc(C(F)(F)F)cc2Cl)c1N [II-1, 5-amino-1-(3-chloro-5-trifluoromethylpyridin-2-yl)pyrazole-4-carboxamide] |  |  |  |  | 196 °C | 1.46
3 | Cc1nc2c(cnn2-c2c(Cl)cc(C(F)(F)F)cc2Cl)c(=O)[nH]1 [Example 3, 1-(2,6-dichloro-4-trifluoromethylphenyl)-6-methyl-1,5-dihydropyrazolo[3,4-d]pyrimidin-4-one] |  |  |  |  | 300 °C | 2.25
4 | CCc1nc2c(cnn2-c2ncc(C(F)(F)F)cc2Cl)c(=O)n1C [Example 16] | good activity | strong action against weeds | strong action against weeds | (I) logP = 2.46^a) |  | 
5 | O=c1[nH]c(C2(F)CC2)nc2c1cnn2-c1ncc(C(F)(F)F)cc1Cl [Example 6, 6-(1-fluorocyclopropyl)-1-(3-chloro-5-trifluoromethylpyridin-2-yl)-1,5-dihydropyrazolo[3,4-d]pyrimidin-4-one] |  | strong action against weeds |  |  | 211 °C | 2.29
6 | O=c1[nH]cnc2c1cnn2-c1ncc(C(F)(F)F)cc1Cl [Example 1, 1-(3-chloro-5-trifluoromethylpyridin-2-yl)-1,5-dihydropyrazolo[3,4-d]pyrimidin-4-one] |  |  |  |  | 331 °C | 1.54
